pIC50: −log10 of the molar value. Calls of active or inactive are those of the source. The rule behind the calls is not given here.
Key:
[1] = Selectivity index, ratio of CC50 for human HepG2 2.2.15 cells to IC50 for HBV infected in human HepG2 2.2.15 cells; type: toxicity, cell-based; conditions: read-out: Ratio CC50/IC50
[2] = tested on: Hepatitis B virus; test: Antiviral activity against HBV infected in human HepG2 2.2.15 cells assessed as inhibition of viral DNA replication at 4 uM incubated for 6 days with every 2 days media replacement by RT-PCR analysis relative to control; type: functional; design: scale not given: the % may be the effect or the level left; conditions: time 6 day
[3] = tested on: Hepatitis B virus; test: Antiviral activity against HBV infected in human HepG2 2.2.15 cells assessed as inhibition of viral DNA replication incubated for 6 days with every 2 days media replacement by RT-PCR analysis; type: functional, organism-based
[4] = tested on: Hepatitis B virus; test: Antiviral activity against HBV infected in ETV/LAM-resistant human HepG2.A64 cells assessed as inhibition of viral DNA replication incubated for 72 hrs by RT-PCR analysis; type: functional, organism-based; conditions: HepG2.A64, 72 h
[5] = Cytotoxicity against human HepG2 2.2.15 cells assessed as reduction in cell viability incubated for 72 hrs by CCK8 assay; type: toxicity, cell-based
[6] = Cytotoxicity against human HepG2.A64 cells assessed as reduction in cell viability incubated for 72 hrs by CCK8 assay; type: toxicity, cell-based
[7] = tested on: Hepatitis B virus; test: Potency index, ratio of LAM IC50 to test compound IC50 for HBV infected in ETV/LAM-resistant human HepG2.A64 cells assessed as inhibition of viral DNA replication; type: functional
[8] = Selectivity index, ratio of CC50 for human HepG2.A64 cells to IC50 for HBV infected in ETV/LAM-resistant human HepG2.A64 cells; type: toxicity; conditions: read-out: Ratio CC50/IC50
[9] = molecular target: Nuclear factor NF-kappa-B complex (Homo sapiens) (UniProt Q00653+P19838+Q04206); test: Activation of NF-kappaB (unknown origin) transfected in HEK293T cells at 0.4 to 10 uM incubated for 48 hrs by Dual-luciferase reporter gene assay; type: cell-based; conditions: dose 0.4-10 µM
[10] = molecular target: T1, Toll-like receptor 8 (Homo sapiens) (UniProt Q9NR97); test: Agonist activity at TLR8 in human PBMC cells assessed as increase in TNF-alpha level incubated for 24 hrs by ELISA; type: cell-based; conditions: filed as agonist, dose 0.4-10 µM
T1 sequence (whole entry): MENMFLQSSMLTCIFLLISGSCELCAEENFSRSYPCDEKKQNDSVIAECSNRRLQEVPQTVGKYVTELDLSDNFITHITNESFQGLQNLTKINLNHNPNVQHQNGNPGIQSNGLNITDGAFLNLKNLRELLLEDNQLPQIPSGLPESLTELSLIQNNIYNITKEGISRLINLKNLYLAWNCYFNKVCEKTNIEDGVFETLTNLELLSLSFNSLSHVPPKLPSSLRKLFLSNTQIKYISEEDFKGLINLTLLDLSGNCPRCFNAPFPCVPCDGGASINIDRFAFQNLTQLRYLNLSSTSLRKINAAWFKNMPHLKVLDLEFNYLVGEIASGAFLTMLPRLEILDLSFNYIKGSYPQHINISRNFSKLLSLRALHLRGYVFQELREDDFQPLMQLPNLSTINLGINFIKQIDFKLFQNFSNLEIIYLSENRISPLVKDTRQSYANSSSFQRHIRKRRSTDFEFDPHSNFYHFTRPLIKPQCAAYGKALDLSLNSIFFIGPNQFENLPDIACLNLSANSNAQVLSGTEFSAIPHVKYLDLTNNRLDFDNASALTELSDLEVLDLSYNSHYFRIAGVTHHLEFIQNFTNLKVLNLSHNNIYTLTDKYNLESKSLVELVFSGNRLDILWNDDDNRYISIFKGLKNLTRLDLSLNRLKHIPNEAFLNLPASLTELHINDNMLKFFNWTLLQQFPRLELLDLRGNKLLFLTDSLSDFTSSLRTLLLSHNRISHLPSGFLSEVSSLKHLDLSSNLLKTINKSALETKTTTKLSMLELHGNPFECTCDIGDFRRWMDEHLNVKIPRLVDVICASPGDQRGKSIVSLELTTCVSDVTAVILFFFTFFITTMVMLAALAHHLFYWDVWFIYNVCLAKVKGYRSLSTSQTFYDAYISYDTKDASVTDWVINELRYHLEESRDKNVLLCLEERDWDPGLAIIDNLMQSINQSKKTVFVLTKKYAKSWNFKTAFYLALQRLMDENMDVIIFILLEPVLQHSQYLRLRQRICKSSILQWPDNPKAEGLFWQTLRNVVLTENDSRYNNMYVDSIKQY

[11] = molecular target: T1, Toll-like receptor 8 (Homo sapiens); test: Agonist activity at human TLR8 transfected in HEK293T cells co-transfected with NF-kappaB and renilla assessed as increase in TLR8-induced NF-kappaB activity at 0.4 to 10 uM incubated for 48 hrs by Dual-luciferase reporter gene assay; type: cell-based; conditions: filed as agonist, dose 0.4-10 µM
[12] = molecular target: T1, Toll-like receptor 8 (Homo sapiens); test: Agonist activity at TLR8 in human PBMC cells assessed as increase in IL-12 level incubated for 24 hrs by ELISA; type: cell-based; conditions: filed as agonist, dose 0.4-10 µM

Nuclear factor NF-kappa-B complex (Homo sapiens), sequence (P19838 whole entry, looked up): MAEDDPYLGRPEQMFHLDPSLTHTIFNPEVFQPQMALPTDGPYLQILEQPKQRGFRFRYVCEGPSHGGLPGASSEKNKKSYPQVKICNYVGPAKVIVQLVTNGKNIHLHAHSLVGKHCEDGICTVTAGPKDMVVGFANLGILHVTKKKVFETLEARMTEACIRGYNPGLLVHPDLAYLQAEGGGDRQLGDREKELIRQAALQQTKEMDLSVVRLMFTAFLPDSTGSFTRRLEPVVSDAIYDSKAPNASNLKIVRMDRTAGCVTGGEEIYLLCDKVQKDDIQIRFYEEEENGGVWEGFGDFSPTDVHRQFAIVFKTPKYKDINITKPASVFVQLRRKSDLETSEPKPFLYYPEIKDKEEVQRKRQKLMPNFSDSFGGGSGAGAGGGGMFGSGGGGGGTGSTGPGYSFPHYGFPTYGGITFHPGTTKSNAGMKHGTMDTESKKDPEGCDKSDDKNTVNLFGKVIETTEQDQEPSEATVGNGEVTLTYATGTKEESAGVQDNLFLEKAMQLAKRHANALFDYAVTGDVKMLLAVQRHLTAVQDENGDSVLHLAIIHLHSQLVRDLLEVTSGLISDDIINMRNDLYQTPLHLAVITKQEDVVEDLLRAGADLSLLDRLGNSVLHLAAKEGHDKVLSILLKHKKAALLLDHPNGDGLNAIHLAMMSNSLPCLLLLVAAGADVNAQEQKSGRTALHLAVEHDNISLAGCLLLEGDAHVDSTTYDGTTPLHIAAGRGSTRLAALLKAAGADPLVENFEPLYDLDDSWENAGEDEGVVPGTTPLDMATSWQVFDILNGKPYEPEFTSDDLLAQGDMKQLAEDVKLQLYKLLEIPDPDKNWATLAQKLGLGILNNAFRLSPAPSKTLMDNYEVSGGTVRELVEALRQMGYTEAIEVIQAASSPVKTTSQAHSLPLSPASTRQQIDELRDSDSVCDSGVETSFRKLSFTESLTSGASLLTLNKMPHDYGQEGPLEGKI
Nuclear factor NF-kappa-B complex (Homo sapiens), sequence (Q00653 whole entry, looked up): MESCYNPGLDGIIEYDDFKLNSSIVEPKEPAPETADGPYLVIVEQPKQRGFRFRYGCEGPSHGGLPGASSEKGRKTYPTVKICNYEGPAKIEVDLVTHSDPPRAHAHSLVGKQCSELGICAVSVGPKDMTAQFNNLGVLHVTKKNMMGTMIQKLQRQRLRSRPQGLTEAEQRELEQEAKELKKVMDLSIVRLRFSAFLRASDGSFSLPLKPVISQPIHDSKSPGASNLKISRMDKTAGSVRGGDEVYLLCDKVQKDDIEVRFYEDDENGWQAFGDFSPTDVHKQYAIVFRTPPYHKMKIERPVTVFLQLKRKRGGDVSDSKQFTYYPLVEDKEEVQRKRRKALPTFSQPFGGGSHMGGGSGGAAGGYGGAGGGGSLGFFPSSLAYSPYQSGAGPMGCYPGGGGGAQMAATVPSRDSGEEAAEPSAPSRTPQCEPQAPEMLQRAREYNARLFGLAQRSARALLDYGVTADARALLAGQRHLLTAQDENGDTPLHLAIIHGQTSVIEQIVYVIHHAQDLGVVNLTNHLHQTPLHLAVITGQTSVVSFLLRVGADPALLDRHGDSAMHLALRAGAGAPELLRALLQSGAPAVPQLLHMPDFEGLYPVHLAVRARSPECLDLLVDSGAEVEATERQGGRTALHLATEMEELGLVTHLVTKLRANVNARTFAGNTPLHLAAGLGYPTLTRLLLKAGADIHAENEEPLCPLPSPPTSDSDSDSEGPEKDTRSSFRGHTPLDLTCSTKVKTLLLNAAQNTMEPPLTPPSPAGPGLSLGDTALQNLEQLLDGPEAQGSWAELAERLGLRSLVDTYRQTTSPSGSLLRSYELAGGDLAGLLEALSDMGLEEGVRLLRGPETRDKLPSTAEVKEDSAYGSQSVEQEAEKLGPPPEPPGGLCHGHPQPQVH
Nuclear factor NF-kappa-B complex (Homo sapiens), sequence (Q04206 whole entry, looked up): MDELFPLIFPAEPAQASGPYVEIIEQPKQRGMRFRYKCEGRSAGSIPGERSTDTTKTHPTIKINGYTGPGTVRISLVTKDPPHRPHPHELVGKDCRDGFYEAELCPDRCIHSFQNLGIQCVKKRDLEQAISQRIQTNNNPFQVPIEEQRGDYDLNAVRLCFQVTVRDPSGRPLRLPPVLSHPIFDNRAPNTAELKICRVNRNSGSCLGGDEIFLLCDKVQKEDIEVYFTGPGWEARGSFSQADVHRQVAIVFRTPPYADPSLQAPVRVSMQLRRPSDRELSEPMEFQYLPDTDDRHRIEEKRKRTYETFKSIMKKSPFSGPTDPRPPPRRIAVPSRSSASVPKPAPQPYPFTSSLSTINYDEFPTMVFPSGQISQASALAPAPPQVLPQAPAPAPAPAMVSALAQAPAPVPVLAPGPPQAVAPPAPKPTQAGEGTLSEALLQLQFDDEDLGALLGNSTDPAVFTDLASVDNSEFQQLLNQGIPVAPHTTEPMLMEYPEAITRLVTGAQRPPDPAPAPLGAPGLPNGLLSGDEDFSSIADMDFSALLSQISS

SMILES	selectivity ratio [1]	Activity [2] [%]	pIC50 [3]	CC50 at 72 h [5] [µM]	further results
Nc1ccn([C@@H]2CS[C@H](CO)O2)c(=O)n1 [LAMIVUDINE]	> 1000	84.42	> 7.00	> 20	pIC50 [4]: < 4.00; CC50 at 72 h [6]: > 100 µM
O=C(NCCn1cnc2cc(-c3noc(CCC4CCCC4)n3)ccc21)c1ccccc1Cl		10.63		> 20	
Cc1ccccc1NC(=O)CCn1cnc2cc(-c3noc(CCC4CCCC4)n3)ccc21		7.43		> 20	
O=C(NCCn1cnc2cc(-c3noc(CCC4CCCC4)n3)ccc21)c1ccc(C(F)(F)F)cc1	> 29	63.99	6.16	> 20	Ratio IC50 [7]: 150; pIC50 [4]: 6.21; selectivity ratio [8]: > 32.8; CC50 at 72 h [6]: > 20 µM
O=C(NCCn1cnc2cc(-c3noc(CCC4CCCC4)n3)ccc21)c1ccccc1F	> 18.7	54.72	5.97	> 20	
O=C(NCCn1cnc2cc(-c3noc(CCC4CCCC4)n3)ccc21)c1cccc(I)c1	> 12	68.86	5.78	> 20	
COc1cccc(C(=O)NCCn2cnc3cc(-c4noc(CCC5CCCC5)n4)ccc32)c1	> 12.5	70.78	5.80	> 20	
O=C(NCCn1cnc2cc(-c3noc(CCC4CCCC4)n3)ccc21)c1ccc(I)cc1	> 7.6	54.76	5.58	> 20	
O=C(CCn1cnc2cc(-c3noc(CCC4CCCC4)n3)ccc21)N1CCCC1	> 3.69	48.57	5.29	> 20	
O=C(NCCn1cnc2cc(-c3noc(CCC4CCCC4)n3)ccc21)c1ccccc1I		30.88		> 20	
O=C(NCCn1cnc2cc(-c3noc(CCC4CCCC4)n3)ccc21)c1ccc(Br)cc1		38.03		> 20	
O=C(CCn1cnc2cc(-c3noc(CCC4CCCC4)n3)ccc21)NC1CCCC1		21.36		> 20	
O=C(NCCn1cnc2cc(-c3noc(CCC4CCCC4)n3)ccc21)c1ccccc1		28.98		> 20	
O=C(NCCn1cnc2cc(-c3noc(CCC4CCCC4)n3)ccc21)c1ccc(F)cc1	> 15	65.06	5.88	> 20	
O=C(CCn1cnc2cc(-c3noc(CCc4ccccc4)n3)ccc21)N1CCCC1		24.46		> 20	
Cc1ccc(C(=O)NCCn2cnc3cc(-c4noc(CCC5CCCC5)n4)ccc32)cc1	> 13.1	54.11	5.82	> 20	

SMILES	selectivity ratio [1]	Activity [2] [%]	pIC50 [3]	CC50 at 72 h [5] [µM]	further results
O=C(CCn1cnc2cc(-c3noc(CCC4CCCC4)n3)ccc21)N1CCCCC1	> 3.17	53.4	5.20	> 20	
O=C(NCCn1cnc2cc(-c3noc(CCC4CCCC4)n3)ccc21)c1cccc(C(F)(F)F)c1	> 37.7	84.47	6.28	> 20	Activity [9]: inactive; Ratio IC50 [7]: 150; Activity [10]: Dose-Dependent Effect; Activity [11]: Active; Activity [12]: Dose-Dependent Effect; pIC50 [4]: 6.36; selectivity ratio [8]: > 45.5; CC50 at 72 h [6]: > 20 µM
O=C(NCCn1cnc2cc(-c3noc(CCC4CCCC4)n3)ccc21)c1cccc(Cl)c1	> 23.5	82.78	6.07	> 20	
Cc1ccccc1C(=O)NCCn1cnc2cc(-c3noc(CCC4CCCC4)n3)ccc21		6.59		> 20	
COc1ccccc1C(=O)NCCn1cnc2cc(-c3noc(CCC4CCCC4)n3)ccc21	> 12.9	76.09	5.81	> 20	
O=C(CCn1cnc2cc(-c3noc(CCC4CCCC4)n3)ccc21)N1CCOCC1		0.02		> 20	
Cc1cccc(C(=O)NCCn2cnc3cc(-c4noc(CCC5CCCC5)n4)ccc32)c1		9.58		> 20	
O=C(NCCn1cnc2cc(-c3noc(CCC4CCCC4)n3)ccc21)c1cccc(F)c1		45.92		> 20	
O=C(NCCn1cnc2cc(-c3noc(CCC4CCCC4)n3)ccc21)c1ccccc1C(F)(F)F	> 5.14	46.02	5.41	> 20	
O=C(NCCn1cnc2cc(-c3noc(CCC4CCCC4)n3)ccc21)c1ccc(Cl)cc1	> 10.2	63.41	5.71	> 20	
O=C(NCCn1cnc2cc(-c3noc(CCC4CCCC4)n3)ccc21)c1ccccc1Br	> 12.4	53.47	5.79	> 20	
O=C(NCCn1cnc2cc(-c3noc(CCC4CCCC4)n3)ccc21)c1cccc(Br)c1	> 6.02	64.39	5.48	> 20	
O=C(CCn1cnc2cc(-c3noc(CCC4CCCC4)n3)ccc21)NC1CCCCC1		2.64		> 20	
O=C(CCn1cnc2cc(-c3noc(CCC4CCCCC4)n3)ccc21)N1CCCC1		0.74		> 20	
COc1ccc(C(=O)NCCn2cnc3cc(-c4noc(CCC5CCCC5)n4)ccc32)cc1	> 7.58	73.8	5.58	> 20	
